# Tested on: S. venezuelae supernatant (secreted enzymes)
# Test: In vitro degradation of CLPs by S. venezuelae cell-free supernatant
# Type: in vitro ADME, Streptomyces venezuelae ATCC 10712
# Details: pure CLPs (100 µM) incubated 24 h at 30°C with 4% (vol/vol) Sv CFS (grown on ISP2, 0.22-µm filtered), shaking 180 rpm; UPLC-MS/MS with feature-based molecular networking
# Method: S. venezuelae cultures were performed on ISP2 medium at 28°C (yeast extract 4 g/L, malt extract 10 g/L, glucose 4 g/L, agar 20 g/L; pH 7.3). On 12 × 12 cm Petri square plates, three stripes (1 × 12 cm) of spores were inoculated with a cotton swab [40 µL of spores suspension (10^7 spores/mL) each], spaced by 3 cm each. The plates were left for 7 days of incubation. Next, the agar media was recovered and placed in Falcon tubes at −20°C for 24 h. Then, the agar media were defrosted at room temperature and centrifuged (8,000 rpm for 20 min). Finally, the supernatant leaked from the agar was collected, filtered sterilized (0.22-µm pore size filters) and stored at −20°C until further use. The heat-treated Sv supernatant was generated by incubating an aliquot of the cell-free supernatant of Sv for 10 min at 98°C. The supernatant was then filtered (0.22-µm pore size filters) and stored at −20°C until further use.
# […] Then the solutions were incubated for 24 h at 30°C with continuous shaking (180 rpm). Next, the solution were centrifuged (1 min at 10,000 rpm), filtered (0.22-µm pore size filters), and analyzed by UPLC-MS.
# The degradation assays of Pseudomonas CLPs were performed using CFS generated as described above. They were supplemented by 4% (vol/vol) of S. venezuelae CFS prepared as described previously. Next, the solutions were incubated for 24 h at 30°C with continuous shaking (180 rpm). Then, the solution were centrifuged (1 min at 10,000 rpm), filtered (0.22-µm pore size filters), and analyzed by UPLC-MS.
# For the CLP degradation kinetic experiments, surfactin, iturin, and fengycin solutions supplemented with S. venezuelae supernatant were prepared following the same protocol. Twenty microliters of solution was sampled at each time point and directly mixed with 80 µL of acetonitrile to stop enzymatic degradation. Finally, they were stored at −20°C until analysis by UPLC-MS.
# All UPLC-MS analyses were performed using an Agilent 1290 Infinity II coupled with a diode array detector and a mass detector (Jet Stream ESI-Q-TOF 6530) in positive mode with the parameters set up as follows: capillary voltage of 3.5 kV, nebulizer pressure of 35 lb/in^2, drying gas of 8 L/min, drying gas temperature of 300°C, flow rate of sheath gas of 11 L/min, sheath gas temperature of 350°C, fragmentor voltage of 175 V, skimmer voltage of 65 V, and octopole radiofrequency of 750 V. Accurate mass spectra were recorded in the m/z range of 300–1,700. For untargeted MS/MS, we used the same MS1 parameters as described. We added MS2 untargeted acquisition mode with the parameters as follows: MS/MS range 50–1,700 m/z; MS/MS scan rate 3 spectra/s; isolation width MS/MS medium (approx. 4 AMU), Decision Engine Native; fixed collision energies of 25 and 40 V for surfactin, 50 V for iturin, and 60 V for fengycin experiments; precursor selection: three for the surfactin experiment, four for the iturin and fengycin experiments, threshold 1,500 (Abs), isotope model common, active exclusion after two spectra and release after 0.5 min, sorting the precursors by charge state then abundance (charge state preference 1). For targeted MS/MS, we used the same MS1 parameters MS/MS range of 50–1,700 m/z or 50–3,200 (when required for Pseudomonas CLPs with mass >1,700 Da), MS/MS scan rate 3 spectra/s, isolation width MS/MS narrow (approx. 1.3 amu), and fixed collision energies 20, 40, and 60V. In all experiments, a C18 Acquity UPLC ethylene bridged hybrid column (2.1 mm × 50 mm × 1.7 µm; Waters Corporation, Milford, MA, USA) was used at a flow rate of 0.6 mL/min and a temperature of 40°C. The injection volume was 20 µL, and the diode array detector scanned a wavelength spectrum between 190 and 600 nm. Unless otherwise mentioned, a gradient of acidified water (0.1% formic acid) (solvent A) and of acidified acetonitrile (0.1% formic acid) (solvent B) was used as mobile phase with a constant flow rate of 0.6 mL/min, starting at 10% B and rising to 100% B in 20 min. […]
substance,measurement,value
iturin,degradation of pure Bacillus CLPs by Sv CFS,degrades

# — PMC10783051 (Microbiology Spectrum, 2023)
